Among the data in patent US5849691A, “Peptidomimetic inhibitors of cathepsin D and plasmepsins I and II” (The United States of America as represented by the …, priority 1996, dated 1998) are Ki and IC50 values, retold here.

A word on the Ki: it is a measure of affinity in units of concentration, obtained from inhibition or displacement. One may read the IC50 as the point on the concentration scale where inhibition reaches its midpoint.

Like-named read-outs stand apart in the source and are kept apart here. Numbered stars: 1 amine (or outer) side, 2 acyl side, 3 side chain; on linkers, the order of the positions; unused ones are H or OH. Bridge positions count the residues as written; N and C are the ends. Square brackets hold non-standard residues; d marks the D form. Peptide text beside a SMILES is read from it. * marks the point of attachment. Ahppa(3S,4S) = O=C(C[C@H](O)[C@H](Cc1ccccc1)N[*:1])[*:2]; Butanoyl(3,3-Me2) = CC(C)(C)CC(=O)*; Isopropoxycarbonyl = CC(C)OC(=O)*; CH2CH2 = C(C[*:2])[*:1]

One test concerns the target cathepsin D (Homo sapiens, UniProt P07339). Briefly: cathepsin D inhibition assay with fluorogenic substrate (tight-binding kinetics). It is filed as biochemical. As to the method:
(§1) Typically, 485 μl of 50 mM Gly-HC1 buffer, pH 3.5 (in the case of cathepsin D), or 100 mM sodium acetate buffer, pH 5.0 (in the case of plasmepsin 2), was mixed with 5 μl of DMSO and 5 μl of titrated protease (final concentration 0.2-10 nM) and incubated 3 min at 37° C. The reaction was initiated by the addition of 5 μl of substrate stock solution in DMSO. Increase in fluorescence intensity at the emission maximum of 487 nm (excitation wavelength was 349 nm) was monitored as a function of time using an Aminco Bowman-2 luminescence spectrometer (SLM Instruments, Inc.).
(§2) The initial rate of hydrolysis was calculated by a second degree polynomial fit using SLM AB2 2.0 operating software. Kinetic parameters were determined by nonlinear regression fitting of initial rate versus substrate concentration data to the Michaelis-Menten equation using the program Enzfitter version 1.05 (Leatherbarrow, R. J. 1987. Enzfitter, a program for non-linear regression analysis. Elsevier Scientific, New York).
For inhibition studies inhibitors were prepared as stock solutions at different concentrations in DMSO. In a typical experiment 485 μl of the appropriate buffer was mixed with 5 μl of inhibitor stock solution and 5 μ of titrated protease (final concentration 0.2-10 nM) and preincubated 3 min at 37° C. The reaction was initiated by the addition of 5 μl of substrate stock solution in DMSO. For data analysis the mathematical model for tight-binding inhibitors (Williams, J. W., and Morrison, J. F. Methods Enzymol. 63:437 (1979)) was used. The data were fitted by nonlinear regression analysis to the equation
V=V0 /2Et ({[K1 (1+S/Km)+It -Et ]^2
+4Ki (1+S/Km)Et }^1/2 -[Ki (1+S/Km)+It

The next test addresses plasmepsin II (PMII) (Plasmodium falciparum, UniProt P46925). Briefly: biochemical. As to the method: as §1, §2
For inhibition studies inhibitors were prepared as stock solutions at different concentrations in DMSO. In a typical experiment 485 μl of the appropriate buffer was mixed with 5 μl of inhibitor stock solution and 5 μ of titrated protease (final concentration 0.2-10 nM) and preincubated 3 min at 37° C. The reaction was initiated by the addition of 5 μl of substrate stock solution in DMSO. […]

The next test deals with plasmepsin I (PMI) (Plasmodium falciparum, UniProt P39898). As to the kind of experiment: biochemical.
Chain of plasmepsin I (PMI) (P39898 124-452): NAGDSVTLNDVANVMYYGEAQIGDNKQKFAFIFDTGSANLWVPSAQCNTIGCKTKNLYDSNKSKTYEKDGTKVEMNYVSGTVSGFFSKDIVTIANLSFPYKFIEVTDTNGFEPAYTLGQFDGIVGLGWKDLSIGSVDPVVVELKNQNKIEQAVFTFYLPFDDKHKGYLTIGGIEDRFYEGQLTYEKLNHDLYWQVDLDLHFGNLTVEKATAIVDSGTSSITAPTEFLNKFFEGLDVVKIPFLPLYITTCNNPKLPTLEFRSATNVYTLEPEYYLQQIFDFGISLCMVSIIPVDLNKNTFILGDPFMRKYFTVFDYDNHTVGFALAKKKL

Chain of cathepsin D (P07339 65-412): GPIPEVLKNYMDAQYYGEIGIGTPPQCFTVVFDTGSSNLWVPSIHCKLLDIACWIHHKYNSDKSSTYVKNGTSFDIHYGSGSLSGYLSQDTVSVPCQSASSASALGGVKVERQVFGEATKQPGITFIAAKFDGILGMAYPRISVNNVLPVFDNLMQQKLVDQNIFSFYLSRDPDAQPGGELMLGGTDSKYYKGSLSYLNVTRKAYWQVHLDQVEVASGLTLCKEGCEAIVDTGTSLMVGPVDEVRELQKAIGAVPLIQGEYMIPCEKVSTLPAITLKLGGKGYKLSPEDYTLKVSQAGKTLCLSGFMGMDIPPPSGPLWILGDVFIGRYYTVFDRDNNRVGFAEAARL
Chain of plasmepsin II (PMII) (P46925 125-453): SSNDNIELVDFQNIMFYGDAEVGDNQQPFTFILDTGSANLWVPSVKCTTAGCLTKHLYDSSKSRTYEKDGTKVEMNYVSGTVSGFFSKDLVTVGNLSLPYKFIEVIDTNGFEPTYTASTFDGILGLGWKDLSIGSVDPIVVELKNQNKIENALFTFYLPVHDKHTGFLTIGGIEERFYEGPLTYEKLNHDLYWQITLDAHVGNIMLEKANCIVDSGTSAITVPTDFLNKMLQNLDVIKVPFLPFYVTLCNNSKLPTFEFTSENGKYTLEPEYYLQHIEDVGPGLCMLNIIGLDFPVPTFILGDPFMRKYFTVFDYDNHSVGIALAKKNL

Compound `CC(C)C[C@H](NC(=O)[C@@H](NC(=O)C[C@H](O)[C@@H]1CCCCNC(=O)CC[C@H](NC(=O)CC(C)(C)C)C(=O)N[C@@H](C(C)C)C(=O)N1)C(C)C)C(=O)NCC(N)=O` [drawing 29] came in with an inhibitory constant (Ki) on cathepsin D of 0.26 nM.
At cathepsin D, `CC(C)C[C@H](NC(=O)[C@H](C)NC(=O)C[C@H](O)[C@H](Cc1ccccc1)NC(=O)[C@@H](NC(=O)OC(C)C)C(C)C)C(N)=O` registered an IC50 of 20 nM.
As to `CC(C)C[C@H](NC(=O)[C@@H](NC(=O)C[C@H](O)[C@@H]1CCCCNC(=O)C[C@H](NC(=O)CC(C)(C)C)C(=O)N[C@@H](C(C)C)C(=O)N1)C(C)C)C(=O)NCC(N)=O`, the affinity at cathepsin D, expressed as Ki, was 2.5 nM.
Same read-out and setting: with `CC(C)C[C@H](NC(=O)[C@@H](NC(=O)C[C@H](O)[C@H](Cc1ccccc1)NC(=O)[C@H](CC(=O)O)NC(=O)[C@@H](NC(=O)CC(C)(C)C)C(C)C)C(C)C)C(=O)NCC(N)=O` [(10), Tha--Val--Asp--Pst--Val--Leu--Gly--NH2] ({Butanoyl(3,3-Me2)}-VD[Ahppa(3S,4S)]VLG-NH2) the figure was 2.1 nM; with `CC(C)[C@@H]1NC(=O)C[C@H](O)[C@H](Cc2ccccc2)NC(=O)[C@@H](NC(=O)[C@@H](NC(=O)CC(C)(C)C)C(C)C)CSSC[C@@H](C(=O)NCC(N)=O)NC1=O` ({Butanoyl(3,3-Me2)}-VC[Ahppa(3S,4S)]VCG-NH2; disulfide 2-5), 150 nM.
In the case of `CC(C)C[C@H](NC(=O)[C@@H](NC(=O)C[C@H](O)[C@@H]1CCCCNC(=O)CC[C@H](NC(=O)CC(C)(C)C)C(=O)N[C@@H](C(C)C)C(=O)N1)C(C)C)C(=O)NCC(N)=O` [drawing 40], the Ki at plasmepsin II (PMII) came out at 0.2 nM; at plasmepsin I (PMI), 22 nM.
`CCCCCNC(=O)[C@@H](NC(=O)C[C@H](O)[C@H](Cc1ccccc1)NC(=O)CCCC)C(C)C`: on cathepsin D, the affinity, expressed as Ki, was 400 nM.
Consider `CC(C)C[C@H](NC(=O)[C@H](C)NC(=O)C[C@H](O)[C@H](Cc1ccccc1)NC(=O)[C@@H](NC(=O)CN(C)C)C(C)C)C(N)=O`, for which the IC50 at cathepsin D came to 1000 nM.
Take `CC(C)[C@@H]1NC(=O)C[C@H](O)[C@H](Cc2ccccc2)NC(=O)[C@@H](NC(=O)[C@@H](NC(=O)CC(C)(C)C)C(C)C)CSCCCSC[C@@H](C(=O)NCC(N)=O)NC1=O`: the affinity on cathepsin D, expressed as Ki, was 1.5 nM.
Still for that read-out and setting: the result for `CC(C)[C@@H]1NC(=O)C[C@H](O)[C@H](Cc2ccccc2)NC(=O)[C@@H](NC(=O)[C@@H](NC(=O)CC(C)(C)C)C(C)C)CCCCNC(=O)CC[C@@H](C(=O)NCC(N)=O)NC1=O` ({Butanoyl(3,3-Me2)}-VK[Ahppa(3S,4S)]VEG-NH2; lactam 2-5) reads 1.4 nM.
For the compound `CC(C)C[C@H](NC(=O)[C@H](C)NC(=O)C[C@H](O)[C@H](Cc1ccccc1)NC(=O)[C@@H](NC(=O)c1ccccn1)C(C)C)C(N)=O` [drawing 15], the Ki at cathepsin D (target named only in b168/b175 (cathepsin D), elsewhere implied, read-out: Ki) came out at 21 nM.
As for `CC(C)C[C@H](NC(=O)[C@H](C)NC(=O)C[C@H](O)[C@H](Cc1ccccc1)NC(=O)[C@@H](NC(=O)Cc1ccccn1)C(C)C)C(N)=O`, the Ki on cathepsin D is 20 nM.
Same read-out and setting: with `CC(C)[C@@H]1NC(=O)C[C@H](O)[C@H](Cc2ccccc2)NC(=O)[C@@H](NC(=O)[C@@H](NC(=O)CC(C)(C)C)C(C)C)CCC(=O)NCCCC[C@@H](C(=O)NCC(N)=O)NC1=O` ({Butanoyl(3,3-Me2)}-VE[Ahppa(3S,4S)]VKG-NH2; lactam 2-5) the figure was 2.3 nM; with `CC(C)C[C@H](NC(=O)[C@H](C)NC(=O)C[C@H](O)[C@H](Cc1ccccc1)NC(=O)[C@@H](NC(=O)[C@@H](NC(=O)OC(C)C)C(C)C)C(C)C)C(N)=O` (Isopropoxycarbonyl-VV[Ahppa(3S,4S)]AL-NH2), 0.24 nM.
In the case of `CC(C)C[C@H](NC(=O)[C@H](C)NC(=O)C[C@H](O)[C@H](Cc1ccccc1)NC(=O)[C@@H](NC(=O)c1ccccn1)C(C)C)C(N)=O` [drawing 42], the results for the Ki on plasmepsin II (PMII) and on plasmepsin I (PMI) were 0.9 nM and 16 nM, respectively.
Regarding `CC(C)[C@@H]1NC(=O)C[C@H](O)[C@H](Cc2ccccc2)NC(=O)[C@@H](NC(=O)[C@@H](NC(=O)CC(C)(C)C)C(C)C)CSCCSC[C@@H](C(=O)NCC(N)=O)NC1=O` ({Butanoyl(3,3-Me2)}-VC[Ahppa(3S,4S)]VCG-NH2; linker 2-5 via CH2CH2), the Ki on cathepsin D turned out to be 1.9 nM.
For the compound `CC(C)[C@@H]1NC(=O)C[C@H](O)[C@H](Cc2ccccc2)NC(=O)[C@@H](NC(=O)[C@@H](NC(=O)CC(C)(C)C)C(C)C)CSCCCCSC[C@@H](C(=O)NCC(N)=O)NC1=O`, at cathepsin D, the Ki turned out to be 0.1 nM.
